The values that follow are results of earlier work, collected in patent publication US20080280850A1, “Methods and Compositions for Treating Flaviviruses, Pestiviruses and Hepacivirus” (priority 2004, published 2008).

The subject of this data set is HCV.

For `NC(=O)c1ncn([C@@H]2O[C@H](CO)[C@@H](O)[C@H]2O)n1` [Ribavirin, 1-[…]D-ribofuranosyl-1-1,2,4-triazole-3-carboxamide], where the note is “patients, monotherapy”, the “effect on serum levels of HCV-RNA” value is “does not lower serum levels of HCV-RNA”. Further, the “serum amino transferase levels reduced to normal, share of patients” value (ribavirin alone) is 40%.
